Results taken from PMC4585259 (Frontiers in Pharmacology, 2015).
Where two headings read alike, the source gives them in different places. Values belong to the compound of their own block, whether it stands above or below them.

Molecular target: T1, rNav1.2 sodium channels (Rattus norvegicus, UniProt P04775)
T1 construct: host or cells: HEK-293
Experiment: QPatch automated patch clamp, inhibition of sodium currents evoked by 5 Hz trains at three extracellular pH values
Type: cell-based
Details: for class of pH-dependence pattern (cluster analysis): Ward's method on 18 variables of affinity, reversibility, onset; for KD app, effect of acidic medium: pH = 6.0 vs neutral, increased KD app = decreased apparent affinity
Method: HEK-293 cells stably expressing rNav1.2 sodium channels were obtained from NeuroSearch (Ballerup, Denmark). The cells were grown in Dulbecco's modified Eagle medium supplemented with 10% FBS. Prior to use, the cells were trypsinized and subsequently kept in suspension in the QPatch cell storage facility in CHO-S- SFM-II medium.
Composition of the extracellular solution was: (in mM): 140 NaCl, 3 KCl, 1 CaCl2 1 MgCl2, 0.1 CdCl2, 20 TEA-Cl, 5 HEPES, adjusted to pH 7.3, Osmolality: 320 mOsm. […] Drugs were synthesized in Gedeon Richter Plc. […] The full list of drugs, with their three-letter codes, concentration, as well as their main therapeutic indication and main mechanism of action are shown in Table 1. […] The choice of concentrations used in this study may seem unusually high.
Data were sampled at a frequency of 25 kHz and filtered at 5 kHz. Junction potential was calculated to be −11 mV and was corrected for. […] Cells having membrane resistance < 500 MOhm, series resistance > 9 MOhm, or capacitance > 22 pF were excluded from analysis. The experimental protocol was also identical to the one used in our previous study: sodium channels were activated by 5 Hz trains of 5 depolarizations (−90 to −10 mV) repeated in every 20 s. In this study, however, the same control–drug-application–washout sequence was repeated four times: at neutral, acidic, alkalic, and again neutral pH. The peak amplitudes of sodium currents throughout the whole experiment are shown plotted against time in Figure 1 and Supplementary Figure 1.
Initial analysis, including subtraction of leak and capacitive artifacts, as well as peak detection were done in the QPatch software. […] All experiments were normalized to the amplitude of the current evoked by the first depolarization of the last train under control conditions. […] For all four drug applications in an experiment, apparent affinity, onset and offset time constants as well as reversibility values were calculated. […] (This method is equivalent to applying the Lineweaver-Burk plot method using a single concentration.) Reversibility values were calculated from control (c), inhibited (i), and wash-out (w) amplitudes as follows: Reversibility = (w-i)/(c-i). Reversibility values should not be regarded as experimental platform-independent properties of compounds. […] However, reversibility values are a valuable source of information regarding physicochemical differences between individual drugs, or between effects of the same drug under different extracellular pH conditions. Onset and offset time constants were determined by single exponential fitting to individual experiments. For neutral pH numerical data were given as the average of the data from the first and the last drug applications. Thin black lines on Figure 1 and Supplemental Figure 1 show the average of five fitted exponentials, (not the exponential fitted to the averaged normalized amplitudes). The numerical values of apparent affinity, onset and offset time constants and reversibility are shown in Table 2, and their relative position is illustrated in Figure 2. Affinity and time constant values were logarithmically transformed for statistics, therefore we show their geometric mean. For recovery data no transformation was done, and we show arithmetic mean values. Significance values were calculated using paired, two-tailed Student's t-test based on five pairs of apparent affinity (log transform), time constant (log transform), or reversibility values obtained from five individual experiments. Because of the large number of comparisons in this study, we accepted p < 0.01 as significant. Cluster analysis was done using Ward's minimum variance method, with Euclidean distance measure. Data were normalized by subtracting the mean (after logarithmic transformation in the case of apparent affinity and time constants), and dividing by the standard deviation.

[1] = pH 6.0, concentration (lidocaine 300 μM, memantine 30 μM)
[2] = pH 6.0, higher concentration: lidocaine 1000 μM, memantine 100 μM
[3] = pH 6.0, single concentration (lidocaine 300 μM, memantine 30 μM), geometric mean of 5, read-out: apparent affinity
[4] = pH 7.3, concentration (lidocaine 300 μM, memantine 30 μM)
[5] = pH 7.3, higher concentration: lidocaine 1000 μM, memantine 100 μM
[6] = pH 7.3, single concentration (lidocaine 300 μM, memantine 30 μM), geometric mean of 5, read-out: apparent affinity
[7] = pH 8.6, concentration (lidocaine 300 μM, memantine 30 μM)
[8] = pH 8.6, higher concentration: lidocaine 1000 μM, memantine 100 μM
[9] = pH 8.6, single concentration (lidocaine 300 μM, memantine 30 μM), geometric mean of 5, read-out: apparent affinity
[10] = pH=6.0, cc 100 mM, read-out: Apparent Affinity
[11] = pH=7.3, cc 100 mM, read-out: Apparent Affinity
[12] = pH=8.6, cc 100 mM, read-out: Apparent Affinity

T1 sequence (P04775 whole entry): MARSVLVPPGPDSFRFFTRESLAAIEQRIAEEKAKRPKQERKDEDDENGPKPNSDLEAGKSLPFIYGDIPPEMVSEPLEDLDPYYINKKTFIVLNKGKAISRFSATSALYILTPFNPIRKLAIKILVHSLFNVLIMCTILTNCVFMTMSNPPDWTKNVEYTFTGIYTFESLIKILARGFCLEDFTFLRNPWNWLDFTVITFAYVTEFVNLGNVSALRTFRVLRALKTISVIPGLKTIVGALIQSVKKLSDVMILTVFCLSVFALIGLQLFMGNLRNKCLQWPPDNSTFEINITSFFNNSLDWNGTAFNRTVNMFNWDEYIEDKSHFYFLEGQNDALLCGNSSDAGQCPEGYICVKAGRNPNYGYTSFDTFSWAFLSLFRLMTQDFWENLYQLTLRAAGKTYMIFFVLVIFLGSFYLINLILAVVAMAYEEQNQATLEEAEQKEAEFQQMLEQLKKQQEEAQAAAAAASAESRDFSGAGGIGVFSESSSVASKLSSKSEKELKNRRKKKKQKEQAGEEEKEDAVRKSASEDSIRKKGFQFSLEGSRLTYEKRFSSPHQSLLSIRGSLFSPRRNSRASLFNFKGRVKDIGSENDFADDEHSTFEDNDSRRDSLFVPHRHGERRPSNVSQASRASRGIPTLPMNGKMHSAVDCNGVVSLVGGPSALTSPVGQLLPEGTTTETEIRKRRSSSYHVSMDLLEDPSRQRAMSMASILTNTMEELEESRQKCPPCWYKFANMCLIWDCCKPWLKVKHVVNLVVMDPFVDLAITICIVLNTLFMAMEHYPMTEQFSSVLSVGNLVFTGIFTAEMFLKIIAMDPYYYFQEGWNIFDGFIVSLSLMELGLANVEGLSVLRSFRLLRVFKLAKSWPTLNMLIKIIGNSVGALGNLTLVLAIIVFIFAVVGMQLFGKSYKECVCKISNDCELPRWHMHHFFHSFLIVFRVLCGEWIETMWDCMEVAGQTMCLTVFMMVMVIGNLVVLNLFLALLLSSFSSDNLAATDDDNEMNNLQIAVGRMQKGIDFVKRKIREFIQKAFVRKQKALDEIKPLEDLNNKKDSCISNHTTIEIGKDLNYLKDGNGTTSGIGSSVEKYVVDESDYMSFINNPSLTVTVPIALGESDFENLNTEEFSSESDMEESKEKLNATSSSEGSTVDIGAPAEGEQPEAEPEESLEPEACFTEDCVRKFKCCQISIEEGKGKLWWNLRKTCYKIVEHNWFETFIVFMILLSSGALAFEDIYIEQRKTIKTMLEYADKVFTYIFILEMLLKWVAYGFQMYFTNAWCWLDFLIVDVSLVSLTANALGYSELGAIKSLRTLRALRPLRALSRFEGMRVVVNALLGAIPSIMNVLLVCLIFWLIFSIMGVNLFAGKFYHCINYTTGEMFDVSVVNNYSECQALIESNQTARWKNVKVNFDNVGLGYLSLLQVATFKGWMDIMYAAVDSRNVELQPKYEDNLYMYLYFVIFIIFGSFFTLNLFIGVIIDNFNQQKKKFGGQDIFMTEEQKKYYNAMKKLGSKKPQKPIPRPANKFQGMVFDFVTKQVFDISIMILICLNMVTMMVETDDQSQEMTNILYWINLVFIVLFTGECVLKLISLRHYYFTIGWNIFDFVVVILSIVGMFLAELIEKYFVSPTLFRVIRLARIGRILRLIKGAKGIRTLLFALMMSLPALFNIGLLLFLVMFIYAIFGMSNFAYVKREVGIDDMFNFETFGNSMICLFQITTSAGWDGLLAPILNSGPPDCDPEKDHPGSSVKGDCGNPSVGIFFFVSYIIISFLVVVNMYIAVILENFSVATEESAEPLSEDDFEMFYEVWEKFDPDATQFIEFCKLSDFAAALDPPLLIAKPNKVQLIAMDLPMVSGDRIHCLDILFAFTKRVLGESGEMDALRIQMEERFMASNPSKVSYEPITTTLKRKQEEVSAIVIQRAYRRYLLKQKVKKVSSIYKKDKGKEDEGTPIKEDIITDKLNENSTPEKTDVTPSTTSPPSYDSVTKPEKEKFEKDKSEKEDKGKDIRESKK

SMILES: CC12CC3CC(C)(C1)CC(N)(C3)C2 [memantine]
class of pH-dependence pattern (cluster analysis): Class F
Ratio Reversibility (pH 6.0/7.3, cc 30 mM): 0.946
Ratio Tau Offset (pH 6.0/7.3, cc 30 mM): 1.093
Ratio Tau Onset (pH 6.0/7.3, cc 30 mM): 0.877
log Ratio App Aff (pH 6.0/7.3, cc 30 mM): 0.255
Ratio Reversibility (pH 6.0/7.3, cc 100 mM): 0.974
Ratio Tau Offset (pH 6.0/7.3, cc 100 mM): 0.656
Ratio Tau Onset (pH 6.0/7.3, cc 100 mM): 1.032
log Ratio App Aff (pH 6.0/7.3, cc 100 mM): 0.109
Ratio Reversibility (pH 6.0/8.6, cc 30 mM): 1.464
Ratio Tau Offset (pH 6.0/8.6, cc 30 mM): 1.000
Ratio Tau Onset (pH 6.0/8.6, cc 30 mM): 0.688
log Ratio App Aff (pH 6.0/8.6, cc 30 mM): 0.915
Ratio Reversibility (pH 6.0/8.6, cc 100 mM): 1.593
Ratio Tau Offset (pH 6.0/8.6, cc 100 mM): 0.550
Ratio Tau Onset (pH 6.0/8.6, cc 100 mM): 0.842
log Ratio App Aff (pH 6.0/8.6, cc 100 mM): 0.840
τoffset [1]: 23.60 s
τonset [1]: 12.80 s
τoffset [2]: 12.20 s
τonset [2]: 12.80 s
Kd (pH 6.0, higher concentration: lidocaine 1000 μM, memantine 100 μM, read-out: apparent affinity): 303 µM
Kd [3]: 394 µM
Ratio Reversibility (pH 7.3/8.6, cc 30 mM): 1.547
Ratio Tau Offset (pH 7.3/8.6, cc 30 mM): 0.915
Ratio Tau Onset (pH 7.3/8.6, cc 30 mM): 0.785
log Ratio App Aff (pH 7.3/8.6, cc 30 mM): 0.661
Ratio Reversibility (pH 7.3/8.6, cc 100 mM): 1.636
Ratio Tau Offset (pH 7.3/8.6, cc 100 mM): 0.838
Ratio Tau Onset (pH 7.3/8.6, cc 100 mM): 0.816
log Ratio App Aff (pH 7.3/8.6, cc 100 mM): 0.731
τoffset [4]: 21.60 s
τonset [4]: 14.60 s
τoffset [5]: 18.60 s
τonset [5]: 12.40 s
Kd (pH 7.3, higher concentration: lidocaine 1000 μM, memantine 100 μM, read-out: apparent affinity): 236 µM
Kd [6]: 219 µM
τoffset [7]: 23.60 s
τonset [7]: 18.60 s
τoffset [8]: 22.20 s
τonset [8]: 15.20 s
Kd (pH 8.6, higher concentration: lidocaine 1000 μM, memantine 100 μM, read-out: apparent affinity): 43.8 µM
Kd [9]: 47.9 µM
KD app, effect of acidic medium: MEM,MEX,TOL↑
Reversibility (pH=6.0, cc 30 mM): 0.82
Kd (pH=6.0, cc 30 mM, read-out: Apparent Affinity): 394 µM
Reversibility (pH=6.0, cc 100 mM): 0.89
Kd [10]: 303 µM
Reversibility (pH=7.3, cc 30 mM): 0.86
Kd (pH=7.3, cc 30 mM, read-out: Apparent Affinity): 219 µM
Reversibility (pH=7.3, cc 100 mM): 0.92
Kd [11]: 236 µM
Reversibility (pH=8.6, cc 30 mM): 0.56
Kd (pH=8.6, cc 30 mM, read-out: Apparent Affinity): 47.9 µM
Reversibility (pH=8.6, cc 100 mM): 0.56
Kd [12]: 43.8 µM

SMILES: Cc1cccc(C)c1OCC(C)N (stereo not shown) [mexiletine]
class of pH-dependence pattern (cluster analysis): Class F
effect of alkalic pH on onset/offset kinetics (in words): acceleration of onset
Ratio Reversibility (pH 6.0/7.3, cc 300 mM): 0.987
Ratio Tau Offset (pH 6.0/7.3, cc 300 mM): 1.071
Ratio Tau Onset (pH 6.0/7.3, cc 300 mM): 1.162
log Ratio App Aff (pH 6.0/7.3, cc 300 mM): 0.268
Ratio Reversibility (pH 6.0/8.6, cc 300 mM): 1.300
Ratio Tau Offset (pH 6.0/8.6, cc 300 mM): 0.938
Ratio Tau Onset (pH 6.0/8.6, cc 300 mM): 1.411
log Ratio App Aff (pH 6.0/8.6, cc 300 mM): 0.786
τoffset [1]: 21.00 s
τonset [1]: 15.80 s
Kd [3]: 350 µM
Ratio Reversibility (pH 7.3/8.6, cc 300 mM): 1.317
Ratio Tau Offset (pH 7.3/8.6, cc 300 mM): 0.875
Ratio Tau Onset (pH 7.3/8.6, cc 300 mM): 1.214
log Ratio App Aff (pH 7.3/8.6, cc 300 mM): 0.518
τoffset [4]: 19.60 s
τonset [4]: 13.60 s
Kd [6]: 189 µM
τoffset [7]: 22.40 s
τonset [7]: 11.20 s
Kd [9]: 57.3 µM
KD app, effect of acidic medium: MEM,MEX,TOL↑
Reversibility (pH=6.0, cc 300 mM): 0.78
Kd (pH=6.0, cc 300 mM, read-out: Apparent Affinity): 350 µM
Reversibility (pH=7.3, cc 300 mM): 0.79
Kd (pH=7.3, cc 300 mM, read-out: Apparent Affinity): 189 µM
Reversibility (pH=8.6, cc 300 mM): 0.60
Kd (pH=8.6, cc 300 mM, read-out: Apparent Affinity): 57.3 µM

class of pH-dependence pattern (cluster analysis): Class D
τoffset [1]: 14.40 s
τonset [1]: 12.20 s
Kd [3]: 317 µM
τoffset [4]: 13.00 s
τonset [4]: 8.80 s
Kd [6]: 141 µM
τoffset [7]: 15.00 s
τonset [7]: 10.40 s
Kd [9]: 37.7 µM
effect of acidic pH on recovery (pH = 6.0 vs 7.3, in words): decreased recovery
SMILES: CN1CCN2c3ncccc3Cc3ccccc3C2C1 (stereo not shown) [mirtazapine]
Ratio Reversibility (pH 6.0/7.3, cc 100 mM): 0.272
Ratio Tau Offset (pH 6.0/7.3, cc 100 mM): 1.108
Ratio Tau Onset (pH 6.0/7.3, cc 100 mM): 1.386
log Ratio App Aff (pH 6.0/7.3, cc 100 mM): 0.353
Ratio Reversibility (pH 6.0/8.6, cc 100 mM): 0.495
Ratio Tau Offset (pH 6.0/8.6, cc 100 mM): 0.960
Ratio Tau Onset (pH 6.0/8.6, cc 100 mM): 1.173
log Ratio App Aff (pH 6.0/8.6, cc 100 mM): 0.925
Ratio Reversibility (pH 7.3/8.6, cc 100 mM): 1.821
Ratio Tau Offset (pH 7.3/8.6, cc 100 mM): 0.867
Ratio Tau Onset (pH 7.3/8.6, cc 100 mM): 0.846
log Ratio App Aff (pH 7.3/8.6, cc 100 mM): 0.572
Reversibility (pH=6.0, cc 100 mM): 0.26
Kd [10]: 317 µM
Reversibility (pH=7.3, cc 100 mM): 0.95
Kd [11]: 141 µM
Reversibility (pH=8.6, cc 100 mM): 0.52
Kd [12]: 37.7 µM
